# According to paper PMC12454639, “Direct disassembly of α-syn preformed fibrils into α-syn monomers by an all-D-peptide” (NPJ Parkinson's Disease, 2025):
# Entries after “also recorded” stand apart in the source; their conditions may differ. Square brackets hold non-standard residues; d marks the D form. Peptide text beside a SMILES is read from it.
# Key:
# α-syn monomer = experiment: CD secondary structure analysis of de novo aggregation; type: biochemical; details: 10 µM α-syn + 20 µM SVD-1a (two-fold molar excess), 7 days
# Method: Fig. 7 De novo aggregation analysis of α-syn in the presence and absence of SVD-1a. A De novo ThT assay of 10 µM α-syn with and without 20 µM SVD-1a. ThT fluorescence progression was measured in a 96-well non-binding half-area plate (Corning, USA) with a FLUOStar plate reader (BMG labtech, GE) at λex = 448 nm and λem = 482 nm with 300 rpm continuous orbital shaking between reads. For induction of aggregation, one borosilicate bead per well was added (d = 3 mm, Hilgenberg, GE). Data are shown as mean values with ±SD (n = 5). B CD secondary structure analysis of de novo aggregation samples. Samples were incubated as described in (A) without added ThT (n = 3) and subsequently pooled for CD analysis. Far-UV ellipticity of the samples was measured in a quartz cuvette (l = 10 mm) in a J-1100 CD-spectrometer (Jasco, GE). In addition to (A), a sample with 20 µM SVD-1a alone was incubated under identical conditions and later used as a reference for the sample with α-syn and SVD-1a. For this sample (α-syn + SVD-1a (after incubation)), the SVD-1a reference subtracted CD spectrum is shown. […] D α-Syn in the flow through (MWCO < 100 kDa) was quantified using an α-syn specific ELISA (BioLegend, Human α-Synuclein (Colorimetric), 448607, n = 3). E Retentate and flow-through samples were analyzed using SDS–PAGE with silver staining. […]
# small α-syn PFF seeds = experiment: Time-dependent DLS of small α-syn PFF seeds disassembly; type: biochemical; parameters: rate constant of PFF disassembly: unit not given here; details: 200 nM PFF + 500 nM SVD-1a
# Method: Fig. 4 SVD-1a disassembles small α-syn PFF seeds into α-syn monomers. Small α-syn PFF seeds were prepared as described previously. […] A and B Time-dependent DLS measurements with 200 nM small α-syn PFF seeds in the absence (A) and presence (B) of 500 nM SVD-1a. 1 ml sample was continuously measured in a sealed quartz cuvette at 37 °C under quiescent conditions every 60 s for 72 h in a SpectroSize 300 instrument (XtalConcepts, GE). Data are shown as a radius plot where the signal amplitude of each particle size is represented by the data point diameter. C One-phase exponential decay fit of “200 nM PFF + 500 nM SVD-1a” shown in (B). Fit was performed for particles in the range of 1–100 nm with an amplitude > 0.2. Outliers were excluded from fitting using a Q value of 1%. […] Fitting was performed using the “One phase exponential decay” fitting function from GraphPad Prism 10 (GraphPad Software Inc., USA). […] D For AFM analysis, small α-syn PFF seeds pretreated with or without 400 and 1600 nM SVD-1a were incubated and dried on a freshly cleaved mica surface, followed by washing with ddH2O and drying using a gentle stream of N2. Analysis was performed using the NanoWizard 3 system (J-1100, JPK BioAFM, USA), recording multiple surface sections. The sections shown are representative of the observed species and particle density identified on all surface sections. E Exemplary Western blot of small α-syn PFF samples incubated with SVD-1a. 200 nM small α-syn PFFs (monomer equivalent) were incubated with increasing concentrations of SVD-1a for 72 h at 37 °C. PFF and monomer samples that were incubated without SVD-1a served as controls. α-Syn was detected with the antibody Syn211. A prominent α-syn monomer band was present at the expected molecular weight. Below the monomer bands, no further bands were visible. In the upper part of the blot, above the marker range, PFFs were detected, using a longer exposure time due to a weaker signal (see Supplementary Fig. 11 for the whole blot image with different exposure times). F Size-based fractionation by centrifugal concentration followed by ELISA quantification. 200 nM small α-syn PFF (monomer equivalent) were incubated with or without SVD-1a together with a 200 nM monomer control for 72 h at 37 °C. After incubation, the samples were fractioned using a 100 kDa MWCO centrifugal concentrator (Merck, Microcon DNA Fast Flow 100 MWCO). α-Syn content of flow through (red) and retentate (blue) was quantified using an α-syn specific ELISA (BioLegend, Human α-Synuclein (Colorimetric), 448607). Shown are the fractions of the retentate and flow through as a percentage of the total concentration identified for each sample. A linear regression line (blue or red dotted lines) was included for the SVD-1a-treated samples (left) to underline the concentration dependency of the SVD-1a treatment effect. The fractions identified for the α-syn monomer control sample are shown as a bar graph (right). […] Data are shown as mean values with ±SD (n = 3).
# small α-syn PFF seeds were prepared as described previously with some modifications. […] The monomer equivalent concentration was determined by measuring the α-syn concentration in the supernatant after the first centrifugation and subtracting it from the start concentration for fibrilization. […]
# [1] = one-phase exponential decay, 37 °C
smiles,measurement,setting,value
CC[C@@H](C)[C@@H](NC(=O)[C@@H](Cc1c[nH]cn1)NC(=O)[C@@H](CCC(=O)O)NC(=O)[C@@H](CCC(N)=O)NC(=O)[C@@H](Cc1c[nH]c2ccccc12)NC(=O)[C@@H](Cc1ccc(O)cc1)NC(=O)[C@H](NC(=O)[C@@H](CCC(=O)O)NC(=O)[C@@H](Cc1c[nH]cn1)NC(=O)[C@H](NC(=O)[C@H]1CCCN1C(=O)[C@@H](CC(C)C)NC(=O)[C@H](N)CCCNC(=N)N)[C@H](C)O)[C@H](C)O)C(=O)N[C@H](Cc1c[nH]c2ccccc12)C(=O)N[C@H](Cc1c[nH]cn1)C(=O)N[C@H](C)C(=O)N[C@H](CCCNC(=N)N)C(=O)N[C@H](CCCNC(=N)N)C(=O)N[C@H](CCCNC(=N)N)C(=O)N[C@H](CCCNC(=N)N)C(=O)N[C@H](CCCNC(=N)N)C(N)=O [SVD-1a] (H-[dR][dL][dP][dT][dH][dE][dT][dY][dW][dQ][dE][dH][dI][dW][dH][dA][dR][dR][dR][dR][dR]-NH2),α-syn secondary structure after de novo aggregation (CD),α-syn monomer,no spectrum shift towards a beta-sheet spectrum was observed; also recorded: fully stabilizes monomeric α-syn in its random coil secondary structure after 7 days of incubation
same,radius of monomeric α-syn formed,"small α-syn PFF seeds; 37 °C, 72 h",~ 1.6 nm
same,span of one-phase exponential decay,"small α-syn PFF seeds; PBS pH 7.4, 37 °C, 72 h, particles 1–100 nm, amplitude > 0.2",23.38 nm
same,radius of small α-syn PFF seeds eliminated,small α-syn PFF seeds; no change (26 nm) without SVD-1a,~ 26 nm
same,half-life of PFF disassembly,small α-syn PFF seeds; [1],5.2 h
same,rate constant of PFF disassembly,small α-syn PFF seeds; [1],0.132
